Measured values published in paper PMC6008883, “Identification of Peptide Antagonists to Thioredoxin Glutathione Reductase of Schistosoma japonicum” (BioMed Research International, 2018).

Tests used:
[1] = system: GR of SjTGR (thioredoxin glutathione reductase of Schistosoma japonicum); test: Inhibition of GR activity of SjTGR; type: biochemical; conditions: phage clone, 10^11 pfu; SjTGR 48 nM; vs activity of SjTGR without phage; repeated three times; P<0.01 vs phage library for JIPDys1, JIPDys2
Method: To assess the inhibitory action of phages, the activities of TrxR, GR, and glutaredoxin (Grx) of SjTGR were assayed as described in [21]. […] system, phage library was used as negative phage control, and the effect of phages on the activity of SjTGR was expressed as percentage inhibition: Inhibition percentage = (activity of SjTGR – activity of SjTGR with isolated phage)/activity of SjTGR. The experiment was repeated three times.
(§1) The activities of TrxR, GR, and Grx of SjTGR were assayed with different concentrations (0.5 μM, 1 μM, and 2 μM) of the synthesized peptide JIPDys1 to determine the 50% inhibitory concentration (IC50), and the same amount of PBS was added to the system as control. The experiment was repeated three times. The IC50 values were calculated by curve fitting using the SPSS 13.0 software.
(§2) All data are given as the mean ± standard deviation (SD). The activities of TrxR, GR, and Grx of SjTGR (absorbance/S (ΔA/S)) with JIPDys1, JIPDys2, JIPDys3, and JIPDys4 were statistically compared with the negative phage control (phage library) using two-tailed Student's t-tests. The activities of TrxR, GR, and Grx of SjTGR (absorbance/S (ΔA/S)) with the synthesized peptide were statistically compared with PBS control using two-tailed Student's t-tests, too. SPSS 13.0 was used for the statistical analyses. Differences between mean values were considered to be significant at the level of 5%.

[2] = system: Grx of SjTGR (thioredoxin glutathione reductase of Schistosoma japonicum); test: Inhibition of Grx activity of SjTGR; type: biochemical; conditions: phage clone, 10^11 pfu; SjTGR 48 nM; vs activity of SjTGR without phage; repeated three times; P<0.01 vs phage library for JIPDys1, JIPDys3
Method: (§3) To assess the inhibitory action of phages, the activities of TrxR, GR, and glutaredoxin (Grx) of SjTGR were assayed as described in [21]. 10 μl ([…]) of phage solution was added to the reaction system, phage library was used as negative phage control, and the effect of phages on the activity of SjTGR was expressed as percentage inhibition: Inhibition percentage = (activity of SjTGR – activity of SjTGR with isolated phage)/activity of SjTGR. The experiment was repeated three times.
as §1, §2

[3] = system: TrxR of SjTGR (thioredoxin glutathione reductase of Schistosoma japonicum); test: Inhibition of TrxR activity of SjTGR; type: biochemical; conditions: phage clone, 10^11 pfu; SjTGR 48 nM; vs activity of SjTGR without phage; repeated three times; P<0.01 vs phage library for JIPDys1, JIPDys2, JIPDys3
Method: To assess the inhibitory action of phages, the activities of TrxR, GR, and glutaredoxin (Grx) of SjTGR were assayed as described in [21]. […], phage library was used as negative phage control, and the effect of phages on the activity of SjTGR was expressed as percentage inhibition: Inhibition percentage = (activity of SjTGR – activity of SjTGR with isolated phage)/activity of SjTGR. The experiment was repeated three times.
as §1, §2

SjTGR [4] = test: Phage binding to recombinant SjTGR by ELISA; parameters: species or system Schistosoma japonicum; conditions: mean of triplicates; for Binding to SjTGR (ELISA OD450nm): phage 1×10^12 pfu/ml, HRP-conjugated anti-M13 antibody, TMB, positive if OD450nm 2.1 times above negative control, binding decreased with decreasing titers
Method: Phage clones were amplified according to the manual. A 96-well plate was coated with 100 μl of SjTGR solution (10 μg/ml, 0.1 M NaHCO3, pH 8.6) overnight at 4°C. After blocking with PBS containing 5% milk powder at rt for 1 h, 100 μl of phage solution with titers of 1 x 10^12, 2.5 x 10^11, 6 x 10^10, 1.5 x 10^10, and 3.75 x 10^9 pfu/ml was used per well, respectively. The phage library was set as the negative phage control. Following an incubation at 37°C for 2 h and six washes with TBST (0.5% Tween-20), 200 μl of diluted HRP-conjugated anti-M13 monoclonal antibody solution was added for 1 h at rt. Following six washes with TBST, 100 μl of substrate TMB solution was added for 10 minutes at rt. 50 μl of 2 M sulfuric acid solution (H2SO4) was added to terminate the reaction and absorbance at 450nm was measured. OD450nm values 2.1 times above the negative control value were considered positive.

SjTGR [5] = test: Inhibition of SjTGR enzyme activity (TrxR, GR and Grx overall); type: biochemical, Schistosoma japonicum; conditions: JIPDys1 from phage screening
Method: as §3, §1

## KHMHWHPPALNT [JIPDys4, M13 phage clone from Ph.D.-12 library displaying peptide …]
[1]
  Percentage of inhibition of GR: 1.50%
[2]
  Percentage of inhibition of Grx: 1.23%
[3]
  Percentage of inhibition of TrxR: 0.73%
SjTGR [4]
  Binding to SjTGR (ELISA OD450nm): bound to SjTGR

## LHAETRSAMHRT [JIPDys2, M13 phage clone from Ph.D.-12 library displaying peptide …]
[1]
  Percentage of inhibition of GR: 69.43%
[2]
  Percentage of inhibition of Grx: 25.64%
[3]
  Percentage of inhibition of TrxR: 45.24%
SjTGR [4]
  Binding to SjTGR (ELISA OD450nm): bound to SjTGR

## WPHNWWPHFKVK [JIPDys1, M13 phage clone from Ph.D.-12 library displaying peptide …]
[1]
  Percentage of inhibition of GR: 80.80%
[2]
  Percentage of inhibition of Grx: 53.56%
[3]
  Percentage of inhibition of TrxR: 59.04%
SjTGR [5]
  Inhibition of SjTGR activity: more than 50%
SjTGR [4]; ELISA, phage titers 3.75 x 10^9 to 1.0 x 10^12 pfu/ml
  Binding capacity compared with the other phages: strongest binding capacity among those phages
SjTGR [4]
  Binding to SjTGR (ELISA OD450nm): bound to SjTGR

## YTMPSLTLYAMG [JIPDys3, M13 phage clone from Ph.D.-12 library displaying peptide …]
[1]
  Percentage of inhibition of GR: 20.88%
[2]
  Percentage of inhibition of Grx: 43.02%
[3]
  Percentage of inhibition of TrxR: 54.72%
SjTGR [4]
  Binding to SjTGR (ELISA OD450nm): bound to SjTGR
